Reference: patent publication US12617777B2, “GPR84 antagonists and uses thereof” (Liminal BioSciences Limited, priority 2021, dated 2026)

Target: T1, human GPR84 receptor (Homo sapiens, UniProt Q9NQS5)
T1 construct: host or cells: HEK293, transient transfection
Test: Gαi biosensor BRET assay in HEK293 cells (antagonism of ZQ-16)
Assay type: cell-based
Conditions: for inhibition at 10 µM: HEK293, single concentration 10 μM (designated F); for IC50: HEK293 cells, antagonism of 200 nmol/L ZQ-16; for inhibition at 2 µM: HEK293, single concentration 2 μM (designated A)
In short: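 HEK293 cells transiently expressing human GPR84, Gαi2-Rluc8, GFP10-Gγ2 and Gβ1, in Tyrode's buffer pH 7.5. Compounds preincubated 5 min at 37° C, then 200 nmol/L ZQ-16 for 5 min at room temperature; coelenterazine 400A 5 μmol/L. BRET2 acceptor/donor ratio, background- and vehicle-corrected net BRET.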

T1 sequence (Q9NQS5 whole entry): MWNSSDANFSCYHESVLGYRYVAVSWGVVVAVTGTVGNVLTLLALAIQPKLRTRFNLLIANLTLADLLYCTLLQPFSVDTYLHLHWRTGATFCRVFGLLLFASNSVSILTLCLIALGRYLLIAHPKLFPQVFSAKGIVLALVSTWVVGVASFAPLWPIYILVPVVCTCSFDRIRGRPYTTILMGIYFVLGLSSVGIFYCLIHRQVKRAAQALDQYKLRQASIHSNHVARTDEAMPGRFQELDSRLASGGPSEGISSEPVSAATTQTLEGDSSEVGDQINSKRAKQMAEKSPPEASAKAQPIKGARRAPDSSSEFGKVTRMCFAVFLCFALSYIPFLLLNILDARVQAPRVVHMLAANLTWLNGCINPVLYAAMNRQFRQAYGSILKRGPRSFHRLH

Structure (SMILES)	inhibition at 10 µM [%]	IC50 [nM]	inhibition at 2 µM [%]
Cc1cc(C#CC2CC2)ccc1-c1cn(CC2OCC(c3ccccc3)CO2)nn1 (stereo not drawn) [Compound I-704]	≤ 25		
Cc1cc(C#CC2CC2)cnc1-c1cn(CC2OCC(c3ccccc3)CO2)nn1 (stereo not drawn) [Compound I-705]	≤ 25		
COCC1(C)CN(c2ccc(-c3cn(CC4OCC(C)(C)CO4)nn3)c(N(C)C)c2)C1 [Compound I-706]	> 75	300 to 1000	
CC1(C)COC(Cn2cc(-c3ncc(C#CC4CC4)cc3Cl)nn2)OC1 [Compound I-708]	> 75	≤ 300	
CC1(C)COC(Cn2cc(-c3ncc(C#CCN4CC(C)(C)C4)cc3OC3CC3)nn2)OC1 [Compound I-709]		≤ 300	> 75
Cc1cc(C#CC2CC2)cnc1-c1cn(CC2OCC(F)(F)CO2)nn1 [Compound I-713]	50 to 75	300 to 1000	
Cc1ccc(C#CC2CC2)cc1C(CC1CC1)c1cn(CC2OCC(C)(C)CO2)nn1 (stereo not drawn) [Compound I-714]		1000 to 3000	> 75
Cc1cc(C#CCN2CC(C)(C)C2)cnc1-c1cn(CCc2ncccn2)nn1 [Compound I-717]	≤ 25		
CN(C)c1cc(C#CC(C)(C)O)ccc1-c1cn(CC2OCC(C)(C)CO2)nn1 [Compound I-719]	> 75	1000 to 3000	
Cc1ccc(C#CC2CC2)cc1C1(c2cn(CC3OCC(C)(C)CO3)nn2)OCCO1 [Compound I-721]		300 to 1000	> 75
CC1(C)COC(Cn2cc(-c3ncc(C#CCN4CC(C)(C)C4)cc3OCC(F)(F)F)nn2)OC1 [Compound I-722]		≤ 300	> 75
COC(c1cn(CC2OCC(F)(F)CO2)nn1)c1cc(C#CC2CC2)c(F)cc1C (stereo not drawn) [Compound I-723]	> 75		
COC(c1cn(CC2OCC(C)(C)CO2)nn1)c1cc(C#CC2CC2)c(F)cc1C (stereo not drawn) [Compound I-724]		≤ 300	> 75
COC(c1cn(CC2OCC(F)(F)CO2)nn1)c1cc(C#CC2CC2)ccc1C (stereo not drawn) [Compound I-725]	> 75	300 to 1000	
Cc1cc(N2CC(C)(C)C2)cnc1-c1cn(CC2OCC(C)(C)CO2)cn1 [Compound I-726]	> 75		
CC(C)c1cc(C#CCN2CC(C)(C)C2)cnc1-c1cn(CC2OCC(C)(C)CO2)nn1 [Compound I-727]		300 to 1000	> 75
CN(C)c1cc(N2CC(C)(CO)C2)ccc1-c1cn(CC2OCC(F)(F)CO2)nn1 [Compound I-729]	> 75		
CN(C)c1cc(C#N)ccc1-c1cn(CC2OCC(C)(C)CO2)nn1 [Compound I-733, 4-(1-((5,5-dimethyl-1,3-dioxan-2-yl)methyl)-1H-1,2,3-triazol-4-yl)-3-(dimethylamino)benzonitrile]	50 to 75		
CC1(C)COC(Cn2cc(-c3ccc(N4CC(C)(CO)C4)cc3CC(F)(F)F)nn2)OC1 [Compound I-735]		≤ 300	> 75

Structure (SMILES)	inhibition at 10 µM [%]	IC50 [nM]	inhibition at 2 µM [%]
CC1(C)COC(Cn2cc(-c3ncc(C#CC4CC4)cc3C(F)F)nn2)OC1 [Compound I-736]	≤ 25		
CC1(C)COC(Cn2cc(-c3ncc(C#CC4CC4)cc3CO)nn2)OC1 [Compound I-738]			≤ 25
CC1(C)CCC(Cn2cc(-c3ncc(C#CC4CC4)cc3OC3CC3)nn2)OC1 (stereo not drawn) [Compound I-739]		≤ 300	> 75
CC1(C)COC(Cn2cc(Oc3ccccc3)nn2)OC1 [Compound I-743, 1-((5,5-dimethyl-1,3-dioxan-2-yl)methyl)-4-phenoxy-1H-1,2,3-triazole]	≤ 25		
CC1(C)COC(Cn2cc(-c3ncc(C#CC4CC4)cc3CC(F)(F)F)nn2)OC1 [Compound I-750]	> 75	≤ 300	
COC(Cc1cc(C#CC2CC2)ccc1C)c1cn(CC2OCC(C)(C)CO2)nn1 (stereo not drawn) [Compound I-753]	> 75		
CC(C)OCC1(C)CN(c2ccc(-c3cn(CC4OCC(C)(C)CO4)nn3)c(N(C)C)c2)C1 [Compound I-754]	> 75	300 to 1000	
COCC1CN(c2ccc(-c3cn(CC4OCC(C)(C)CO4)nn3)c(N(C)C)c2)C1 [Compound I-755]	> 75		
CN(C)c1cc(N2CC3(COC3)C2)ccc1-c1cn(CC2OCC(C)(C)CO2)nn1 [Compound I-756]	> 75	300 to 1000	
COCC#Cc1cnc(-c2cn(CC3OCC(C)(C)CO3)nn2)c(OC2CC2)c1 [Compound I-757]		≤ 300	> 75
CC1(C)COC(Cn2cc(-c3ncc(C#CCOC4CC4)cc3OC3CC3)nn2)OC1 [Compound I-758]		≤ 300	> 75
Cc1ccc(C#CC2CC2)cc1Nc1cnn(CC2OCC(C)(C)CO2)n1 [Compound I-759, N-(5-(cyclopropylethynyl)-2-methylphenyl)-2-((5,5-dimethyl-1,3-dioxan-2-yl)methyl)-2H-1,2,3-triazol-4-amine]	≤ 25		
Cc1ccc(C#CC2CC2)cc1N(C)c1cn(CC2OCC(C)(C)CO2)nn1 [Compound I-761, N-(5-(cyclopropylethynyl)-2-methylphenyl)-1-((5,5-dimethyl-1,3-dioxan-2-yl)methyl)-N-methyl-1H-1,2,3-triazol-4-amine]		300 to 1000	
CC1(C)COC(Cn2cc(-c3ncc(C#CCN4CC(C)(C)C4)cc3CC(F)(F)F)nn2)OC1 [Compound I-762]		≤ 300	
CC1(C)CN(CC#Cc2cnc(-c3cn(CC4OCC5(CCC5)O4)nn3)c(OC3CC3)c2)C1 (stereo not drawn) [Compound I-764]		300 to 1000	
CC1(C)COC(Cn2cc(-c3ncc(N4CC(C)(CO)C4)cc3Cl)nn2)OC1 [Compound I-765]		1000 to 3000	
CC1(C)COC(Cn2cc(-c3ccc(N4CC(C)(CO)C4)cc3OC3CC3)nn2)OC1 [Compound I-767]		300 to 1000	
CCc1cc(C#CCOC)ccc1-c1cn(CC2OCC(C)(C)CO2)nn1 [Compound I-770]		≤ 300	

Continued, values first:

inhibition at 10 µM [%]	IC50 [nM]	inhibition at 2 µM [%]	Structure (SMILES)
> 75	≤ 300		CN(C)c1cc(N2CC(C)(CO)C2)ccc1-c1cn(CC2CC3(CC3)CO2)nn1 (stereo not drawn) [Compound I-707]
	≤ 300	> 75	CN(C)c1cc(N2CC(C)(CO)C2)c(F)cc1-c1cn(CC2CC(C)(C)CO2)nn1 (stereo not drawn) [Compound I-710]
	≤ 300	> 75	CN(C)c1cc(N2CC(C)(CO)C2)c(F)cc1-c1cn(CC2OCC(C)(C)CO2)nn1 [Compound I-711]
	≤ 300	> 75	Cc1cc(C#CCn2cc(-c3ccc(N(C)C)cc3)nn2)cnc1-c1cn(CC2CCCCO2)nn1 (stereo not drawn) [Compound I-712]
> 75			Cc1cc(N2CCN([C@H](C)c3ccccn3)CC2)ccc1-c1cn(CC2OCC(C)(C)CO2)nn1 [Compound I-715]
> 75	300 to 1000		Cc1cc(N2CCN([C@@H](C)c3ccccn3)CC2)ccc1-c1cn(CC2OCC(C)(C)CO2)nn1 [Compound I-716]
	300 to 1000	> 75	Cc1cccc(-c2cn(CC#Cc3cnc(-c4cn(CC5CCCCO5)nn4)c(C)c3)nn2)c1 (stereo not drawn) [Compound I-718]
> 75	300 to 1000		Cc1cc(C#CCn2cc(-c3ccccc3)nn2)cnc1-c1cn(CC2CCCCO2)nn1 (stereo not drawn) [Compound I-720]
> 75			CN(C)c1cc(N2CC(C)(CO)C2)ccc1-c1cn(CC2OCC3(CCC3)O2)nn1 (stereo not drawn) [Compound I-728]
> 75	300 to 1000		Cc1cc(N2CC(C)(CO)C2)c(F)cc1-c1cn(CC2CCCCO2)nn1 (stereo not drawn) [Compound I-730]
> 75	300 to 1000		Cc1cc(N2CC(C)(OCc3ccccn3)C2)c(F)cc1-c1cn(CC2CCCCO2)nn1 (stereo not drawn) [Compound I-731]
≤ 25			Cc1cc(C#CCn2cc(C3CC3)nn2)cnc1-c1cn(CC2CCCCO2)nn1 (stereo not drawn) [Compound I-732]
> 75	300 to 1000		Cc1ccccc1-c1cn(CC#Cc2cnc(-c3cn(CC4CCCCO4)nn3)c(C)c2)nn1 (stereo not drawn) [Compound I-734]
> 75	300 to 1000		Cc1cc(N2CC(C)(NCc3ccccn3)C2)c(F)cc1-c1cn(CC2CCCCO2)nn1 (stereo not drawn) [Compound I-737]
	≤ 300	> 75	CC1(C)COC(Cn2cc(-c3ccc(N4CC(C)(CO)C4)cc3CC(F)(F)F)nn2)C1 (stereo not drawn) [Compound I-740]
> 75			Cc1c(C#CC2CC2)cccc1C(C)c1cn(C[C@H]2CCCCO2)nn1 (stereo partly drawn) [Compound I-741]
> 75			C=C(c1cn(C[C@H]2CCCCO2)nn1)c1cccc(C#CC2CC2)c1C [Compound I-742]
> 75	300 to 1000		CC1(NCc2ccccn2)CN(c2ccc(-c3cn(CC4CCCCO4)nn3)c(CC(F)(F)F)c2)C1 (stereo not drawn) [Compound I-744]
	300 to 1000	> 75	CC1(C)COC(Cn2cc(-c3ccc(N4CC(C)(NCc5ccccn5)C4)cc3CC(F)(F)F)nn2)OC1 [Compound I-745]
	≤ 300	> 75	FC(F)(F)Cc1cc(N2CCN(Cc3ccccn3)CC2)ccc1-c1cn(C[C@H]2CCCCO2)nn1 [Compound I-746]
	≤ 300	> 75	CC1(C)COC(Cn2cc(-c3ccc(N4CCN(Cc5ccccn5)CC4)cc3CC(F)(F)F)nn2)OC1 [Compound I-747]
	≤ 300	> 75	CN(C)c1cc(N2CC(C)(CO)C2)ccc1-c1cn(CC2OCC3(CC3)CO2)nn1 [Compound I-748]
50 to 75	≤ 300	> 75	CC1(C)CN(c2ccc(-c3cn(C[C@H]4CCCCO4)nn3)c(OC3CC3)c2)C1 [Compound I-749]
25 to 50			Cc1cc(N2CCN(Cc3ccccn3)CC2=O)ccc1-c1cn(CC2OCC(C)(C)CO2)nn1 [Compound I-751]
25 to 50			Cc1cc(N2CCN(Cc3ccccn3)C(=O)C2)ccc1-c1cn(CC2OCC(C)(C)CO2)nn1 [Compound I-752]
